Values of other authors as cited in patent US20150150789A1, “ANTIMICROBIAL COMPOSITIONS AND METHODS FOR PREVENTING INFECTION IN SURGICAL INCISION SITES” (TYRX, Inc., priority 2013, published 2015).

Conditions: for solubility in organic solvents: alcohols, ketones, ethers, aldehydes, acetonitrile, acetic acid, methylene chloride, chloroform (novobiocin sodium: alcohol)

| solubility in organic solvents | solubility in water | solubility in acidic aqueous solutions (acidic aqueous solutions) | SMILES |
| --- | --- | --- | --- |
| freely soluble | freely soluble |  | CO[C@@H]1[C@@H](OC(N)=O)[C@@H](O)[C@H](Oc2ccc3c(O)c(NC(=O)c4ccc(O)c(CC=C(C)C)c4)c(=O)oc3c2C)OC1(C)C [Novobiocin sodium] |
| freely soluble | very slightly soluble | freely soluble | CO[C@H]1/C=C/O[C@@]2(C)Oc3c(C)c(O)c4c(O)c(c(/C=N/N5CCN(C)CC5)c(O)c4c3C2=O)NC(=O)/C(C)=C\C=C\[C@H](C)[C@H](O)[C@@H](C)[C@@H](O)[C@@H](C)[C@H](OC(C)=O)[C@@H]1C [Rifampin, rifampin] |

More lines, now with the values behind:

| SMILES | solubility in organic solvents | solubility in water | solubility in acidic aqueous solutions (acidic aqueous solutions) |
| --- | --- | --- | --- |
| CC[C@H]1OC(=O)[C@H](C)[C@@H](O[C@H]2C[C@@](C)(OC)[C@@H](O)[C@H](C)O2)[C@H](C)[C@@H](O[C@@H]2O[C@H](C)C[C@H](N(C)C)[C@H]2O)[C@](C)(O)C[C@@H](C)C(=O)[C@H](C)[C@@H](O)[C@]1(C)O [Erythromycin] | soluble | slightly soluble |  |
| Oc1c(Cl)cc(Cl)c(Cl)c1Cc1c(O)c(Cl)cc(Cl)c1Cl [Hexachlorophene] | soluble | soluble |  |
| CCOc1ccc2ccccc2c1C(=O)N[C@@H]1C(=O)N2[C@@H]1SC(C)(C)[C@@H]2C(=O)O [Nafcillin] | readily soluble | readily soluble |  |
